Assay results reported in patent US6653340B1, “Compounds useful in the complement, coagulat and kallikrein pathways and method for their preparation” (BioCryst Pharmaceuticals, Inc., priority 1997, dated 2003).
Like-named read-outs stand apart in the source and are kept apart here.

Columns and labels:
kallikrein = kallikrein (Homo sapiens, UniProt P03952); assay: Kallikrein inhibition assay (thioester substrate); assay type: biochemical; details: kallikrein 0.02 units/mL; read-out: Kallikrein (Serine Protease Inhibitory Data, IC50)
Sequence of kallikrein (P03952 whole entry): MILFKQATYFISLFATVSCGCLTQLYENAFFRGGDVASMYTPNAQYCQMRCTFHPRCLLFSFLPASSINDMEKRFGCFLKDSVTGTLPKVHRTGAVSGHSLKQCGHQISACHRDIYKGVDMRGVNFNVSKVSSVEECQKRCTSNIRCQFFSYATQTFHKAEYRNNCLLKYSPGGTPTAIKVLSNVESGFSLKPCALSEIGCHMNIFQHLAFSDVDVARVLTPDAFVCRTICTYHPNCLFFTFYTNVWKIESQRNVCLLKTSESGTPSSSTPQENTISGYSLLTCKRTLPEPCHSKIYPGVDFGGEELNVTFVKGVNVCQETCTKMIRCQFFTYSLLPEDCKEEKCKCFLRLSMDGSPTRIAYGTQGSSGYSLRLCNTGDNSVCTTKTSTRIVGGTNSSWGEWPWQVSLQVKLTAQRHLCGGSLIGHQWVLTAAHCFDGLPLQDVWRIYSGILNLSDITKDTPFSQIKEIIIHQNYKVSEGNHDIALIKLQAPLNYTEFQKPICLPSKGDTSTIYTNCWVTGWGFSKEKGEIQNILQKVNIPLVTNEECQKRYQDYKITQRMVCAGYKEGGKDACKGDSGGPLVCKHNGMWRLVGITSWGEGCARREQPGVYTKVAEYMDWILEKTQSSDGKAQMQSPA
Description: (§1) The compounds to be tested were dissolved in a stock solution of DMSO at 10.0 or 100 mM. A portion of this stock solution was added to assay buffer in a final volume of 100 μL containing the enzyme of interest. Controls included buffer alone and enzyme solutions to which DMSO was added. Substrate was added to the reaction wells immediately or after incubation at room temperature. The reaction rates were measured spectrophotometrically by the generation of product at 405 nm for 200 sec. Background absorbance at 690 nm was measured and subtracted from the absorbance at 405 nm for each well.
(§2) The reaction rate for enzyme alone was compared to the rate of enzyme in the presence of inhibitor and the percent inhibition was calculated as shown below:
(§3) Percent Inhibition=[Rate without inhibitor−Rate with inhibitor)/(Rate without inhibitor)]×100
(§4) Compounds in the examples were tested a minimum of three times.
(§5) Thrombin was assayed at 12.5 U/ml using 0.37 mM N-Benzoyl-Phe-Val-Arg-p-nitroanilide (Svendsen, L.; Blomback B.; Blomback, M.; Olsson, P. I. Substrate for determination of trypsin, thrombin and thrombin-like enzymes. Folia Haematol. 1972, 98, 446-454.) as the substrate in 100 mM HEPES, 10 mM CaCl2, 10% DMSO, pH 7.5. Factor Xa, 0.5 U/mL, was assayed in 50 mM HEPES, 150 mM NaCl, 10 mM CaCl2, pH 8.0 using Chromozyme X, 0.17 mM, as the substrate. Plasmin (0.004 units/mL), factor XIIa ([…]) and kallikrein (0.02 units/mL were assayed using modifications of the techniques originally described by McRae, et al. (Biochemistry. 1981, 20, 7196-7206). The assays were run in 200 mM triethanolamine, pH 7.8 and 100 mM Tris-HCl, 100 mM EDTA, […] using Z-Lys-SBzl, 0.13 mM and […], 0.16 mM, as substrates, respectively.

factor XIIa = target: T1, factor XIIa (Homo sapiens, UniProt P00748); assay: Factor XIIa inhibition assay (thioester substrate); assay type: biochemical; details: read-out: XIIa (Serine Protease Inhibitory Data, IC50)
T1 sequence (P00748 373-615 limits assumed): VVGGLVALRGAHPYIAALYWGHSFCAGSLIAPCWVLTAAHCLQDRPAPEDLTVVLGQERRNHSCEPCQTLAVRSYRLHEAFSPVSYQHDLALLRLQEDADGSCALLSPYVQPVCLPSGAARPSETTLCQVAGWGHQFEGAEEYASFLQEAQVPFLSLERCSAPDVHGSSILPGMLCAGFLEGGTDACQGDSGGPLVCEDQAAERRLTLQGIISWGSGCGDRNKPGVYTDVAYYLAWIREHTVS
Description: as §1, §2, §3, §4, §5

Factor Xa = Factor Xa (Homo sapiens, UniProt P00742); assay: Factor Xa inhibition assay (Chromozyme X substrate); assay type: biochemical; details: Factor Xa 0.5 U/mL, pH 8.0; read-out: Xa (Serine Protease Inhibitory Data, IC50)
Sequence of Factor Xa (P00742 235-488 limits assumed): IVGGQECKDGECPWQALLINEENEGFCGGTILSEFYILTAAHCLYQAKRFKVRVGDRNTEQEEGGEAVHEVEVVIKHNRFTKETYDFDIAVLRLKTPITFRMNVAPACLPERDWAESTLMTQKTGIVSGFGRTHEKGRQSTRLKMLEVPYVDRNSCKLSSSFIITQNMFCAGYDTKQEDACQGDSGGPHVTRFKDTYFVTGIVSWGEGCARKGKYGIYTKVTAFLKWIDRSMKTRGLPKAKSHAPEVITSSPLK
Sequence of Factor Xa (P00742 41-179 partner limits assumed): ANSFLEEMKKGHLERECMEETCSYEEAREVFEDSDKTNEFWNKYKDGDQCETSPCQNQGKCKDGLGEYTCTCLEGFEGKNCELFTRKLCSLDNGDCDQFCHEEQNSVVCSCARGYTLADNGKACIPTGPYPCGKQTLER
Description: as §1, §2, §3, §4, §5

Thrombin = Thrombin (Homo sapiens, UniProt P00734); assay: Thrombin inhibition assay (N-Benzoyl-Phe-Val-Arg-p-nitroanilide substrate); assay type: biochemical; details: thrombin 12.5 U/ml, pH 7.5; read-out: Thrombin (Serine Protease Inhibitory Data, IC50)
Description: as §1, §2, §3, §4, §5

Factor D [1] = target: T2, Factor D (Homo sapiens, UniProt P00746); assay: Factor D esterolytic inhibition assay (Z-Lys-SBzl substrate); assay type: biochemical; set-up: Factor D was purified from the urine of a patient with Fanconi syndrome by ion exchange chromatography; from tissue; host or cells: urine of a patient with Fanconi syndrome; details: Z-Lys-SBzl 1.29 mM, pH 7.5, 10% DMSO; read-out: Factor D (Serine Protease Inhibitory Data, IC50)
T2 sequence (P00746 26-253): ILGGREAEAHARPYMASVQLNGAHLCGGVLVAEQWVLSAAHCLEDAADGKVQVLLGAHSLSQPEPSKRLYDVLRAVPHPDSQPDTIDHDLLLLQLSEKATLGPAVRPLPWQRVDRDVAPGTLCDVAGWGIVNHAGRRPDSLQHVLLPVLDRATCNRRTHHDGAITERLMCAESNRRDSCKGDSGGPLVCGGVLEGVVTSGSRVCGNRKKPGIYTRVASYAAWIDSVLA
Source text: A modification of the procedure of Volanakis (Volankis, J. E.; Barnum, S. R.; Kilpatrick, J. M. Purification and properties of human factor D. Methods in Enzymol. 1993, 223, 82-97) for purification of Factor D was utilized as described by Yamauchi (Yamauchi, Y.; Stevens, J. W.; Macon, K. J.; Volanakis, J. E. Recombinant and native zymogen forms of human complement factor D. J. Immunol. 1994, 152, 3645-3653. Briefly, Factor D was purified from the urine of a patient with Fanconi syndrome by ion exchange chromatography using BioRex 70 and two rounds of ion-exchange chromatography in a Pharmacia FPLC system using a HR5/5 Mono S column.
as §1, §2, §3, §4
An established esterolytic assay for the measurement of Factor D activity and inhibition of Factor D activity was used (Kam, C. M.; McRae, B. J.; Harper, J. W.; Niemann, M. A.; Volanakis, J. E.; Powers, J. C. Human complement proteins D, C2, and B Active site mapping with peptide thioester substrates. J Biol. Chem. 1987, 262, 3444-3451). […] Hydrolysis of this compound by Factor D liberated a free sulfhydryl group which is then reacted with 5,5′-dithiobis(2nitrobenzoic acid) producing an intense yellow color (Habeeb, A. F. S. A. Reaction of protein sulfhydryl groups with Ellman's Reagent. Methods in Enzymol. 1976, 25, 457-464.). The assays were performed in 96 well microtiter plates and rates of hydrolysis were monitored at 405 nm in a Anthos Labtec HT2 plate reader. Hydrolysis rates were reported as change in mOD/min. The assay was conducted in 100 mM HEPES, 500 mM NaCl, pH 7.5 containing 10% DMSO in a final volume of 200 μL per well.

Factor B = Factor B (Homo sapiens, UniProt P00751); details: Ikari, N. et al. Immunology 49: 685-691, 1983; cited from earlier work
Sequence of Factor B (P00751 26-764): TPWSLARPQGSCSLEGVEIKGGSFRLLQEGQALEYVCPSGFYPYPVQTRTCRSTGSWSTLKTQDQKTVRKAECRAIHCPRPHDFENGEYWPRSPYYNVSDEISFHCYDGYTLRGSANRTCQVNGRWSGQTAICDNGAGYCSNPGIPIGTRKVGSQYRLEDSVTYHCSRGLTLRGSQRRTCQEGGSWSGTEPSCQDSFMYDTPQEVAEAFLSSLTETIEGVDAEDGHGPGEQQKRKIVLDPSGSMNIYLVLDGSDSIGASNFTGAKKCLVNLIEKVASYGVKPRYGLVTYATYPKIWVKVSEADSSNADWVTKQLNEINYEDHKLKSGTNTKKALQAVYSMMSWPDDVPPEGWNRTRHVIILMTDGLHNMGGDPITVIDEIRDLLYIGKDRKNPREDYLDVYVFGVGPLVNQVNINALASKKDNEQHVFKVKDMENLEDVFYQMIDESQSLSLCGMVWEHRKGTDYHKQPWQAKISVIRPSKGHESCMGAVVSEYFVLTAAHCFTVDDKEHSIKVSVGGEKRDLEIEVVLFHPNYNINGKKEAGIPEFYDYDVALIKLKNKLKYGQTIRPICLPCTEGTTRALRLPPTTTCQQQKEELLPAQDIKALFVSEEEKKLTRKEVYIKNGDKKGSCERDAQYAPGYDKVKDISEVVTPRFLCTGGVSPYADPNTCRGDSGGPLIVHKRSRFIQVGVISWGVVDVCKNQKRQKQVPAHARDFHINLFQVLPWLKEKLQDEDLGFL

C1s = target: T3, C1s (Homo sapiens, UniProt P09871); assay: C1s esterolytic inhibition assay (Z-Lys-SBzl substrate); assay type: biochemical; details: Z-Lys-SBzl 1.29 mM, C1s 3 to 13 nM; read-out: Cls (Serine Protease Inhibitory Data, IC50)
T3 sequence (P09871 16-688): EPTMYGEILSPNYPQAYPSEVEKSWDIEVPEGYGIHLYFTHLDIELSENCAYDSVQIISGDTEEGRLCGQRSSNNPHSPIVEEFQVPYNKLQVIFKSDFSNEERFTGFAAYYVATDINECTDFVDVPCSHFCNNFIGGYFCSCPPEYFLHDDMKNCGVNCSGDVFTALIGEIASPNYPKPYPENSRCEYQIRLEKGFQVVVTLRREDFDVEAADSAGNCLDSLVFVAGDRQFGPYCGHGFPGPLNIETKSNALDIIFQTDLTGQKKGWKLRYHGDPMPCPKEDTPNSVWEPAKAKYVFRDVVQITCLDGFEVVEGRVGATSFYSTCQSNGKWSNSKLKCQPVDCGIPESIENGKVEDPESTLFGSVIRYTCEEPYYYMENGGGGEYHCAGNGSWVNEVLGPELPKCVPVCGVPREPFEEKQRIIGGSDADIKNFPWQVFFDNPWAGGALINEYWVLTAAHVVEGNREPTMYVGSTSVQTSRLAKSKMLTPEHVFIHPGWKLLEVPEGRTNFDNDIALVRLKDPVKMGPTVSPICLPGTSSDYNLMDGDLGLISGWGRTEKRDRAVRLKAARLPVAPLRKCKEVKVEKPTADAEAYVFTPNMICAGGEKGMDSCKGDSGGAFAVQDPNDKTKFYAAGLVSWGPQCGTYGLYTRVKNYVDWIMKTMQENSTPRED
Description: as §1, §2, §3, §4
C1s esterolytic activity was assayed using a modification of the technique originally described by Kam using Z-Lys-SBzl, 1.29 mM as substrate and C1s at 3 to 13 nM.

Factor D [2] = target: T2, Factor D; details: Inagi, R et al, Nephron 66: 285-290, 1994; cited from earlier work

N=C(N)c1ccc2cc(OC(=O)c3ccc(N=C(N)N)cc3)ccc2c1 [nafamostat, 6′-amidino-2-naphthyl-p-guanidinobenzoate, reference compound]
IC50 (kallikrein): 12 nM | IC50 (factor XIIa): 114 nM | IC50 (Factor Xa): 1010 nM | IC50 (Thrombin): 678 nM | IC50 (Factor D [1]): 11000 nM | IC50 (Factor B): 60000 nM | IC50 (C1s): 22 nM | IC50 (Factor D [2]): 25000 nM
